Laboratory results reported in US10745393B2, “Small molecular probes, processes and use thereof” (JAWAHARLAL NEHRU CENTRE FOR ADVANCED SCIENTIFIC RESEARCH, priority 2014, dated 2020).

Experiments:
[1] = Absorption, emission and quantum yield of probes without Aβ42 aggregates; type: physicochemical
[2] = target: T1, Aβ42 aggregates (Homo sapiens, UniProt P05067); test: Absorption / fluorescence response with Aβ42 fibrillar aggregates; type: binding
[3] = target: Aβ42 monomers (Homo sapiens, UniProt P05067); test: Absorption / fluorescence response with Aβ monomers; type: binding; conditions: QC 2 μM, Aβ monomers 10 μM
[4] = target: α-Synuclein (α-Syn) aggregates (Homo sapiens, UniProt P37840); test: Selectivity: fluorescence with α-synuclein aggregates; type: binding
[5] = target: T2, islet amyloid polypeptide (IAPP) aggregates (Homo sapiens, UniProt P10997); test: Selectivity: fluorescence with IAPP aggregates; type: binding; conditions: IAPP aggregates 20 μM
T2 construct: A 0.1 mg (Merck, calbiochem) sample of amylin is dissolved in 100 μL of acetonitrile; purchased Merck, calbiochem

[6] = target: bovine serum albumin (BSA) (Bos taurus, UniProt P02769); test: Selectivity: fluorescence with BSA; type: binding
[7] = test system: calf thymus DNA; test: Selectivity of QC: fluorescence with calf thymus DNA; type: binding; conditions: QC 2 μM, DNA 20 μM
Description: Selective fluorescence enhancement is shown by QC probe, with strong binding affinity. Probe QC has very good lipophilicity to cross the BBB and serum stability. QC detects Aβ plaques in CSF samples of patient which can be used in early diagnosis of Alzheimer's Disease. Probe QC is a molecular rotor moiety containing an electron withdrawing group in conjugation with an electron releasing group with a freely rotatable bond. Prevention of internal rotation in QC by surrounding medium rigidity, leads to a decrease in the non-radiative decay rate and an increase in fluorescence emission. […] In presence of Aβ42 aggregates (10 μM) prepared in PBS buffer (10 mM), absorption maxima at 521 nm (λex) and a blue shifted emission maxima (10 nm) with huge (>100 fold) fluorescence enhancement ([…]=654 nm) and a large stoke shift of ˜130 nm is observed (FIG. 47). […] These peptides are known to form fibrillar aggregates similar to Aβ42 aggregates. […] No such changes are observed in case of IAPP aggregates.

[8] = target: T1, Aβ42 aggregates; test: Binding saturation assay (fluorescence) for binding constant; conditions: fluorescence saturation curve; Aβ42 aggregates 10 μM (QC) or 2 μM (TC); read-out: dissociation constant Kd
[9] = target: ThT/Aβ42 aggregate complex (Homo sapiens, UniProt P05067); test: ThT displacement / FRET assay; type: binding; conditions: decay at 483 nm, enhancement at 654 nm
[10] = Partition coefficient (Log P), shake flask method; type: physicochemical; conditions: n-octanol/water
Method: Log P value is calculated by Shake flask (or tube) method. To an equilibrated solution of n-octanol and water in a separating funnel, probe QC/TC is added and agitated well. The solution is left for 30 minutes for proper separation of immiscible solvents, then the distribution of QC/TC is calculated using UV spectroscopy and the obtained concentrations are used in below equation to obtain log P value log P=log [Conc. of QC or TC in n-octanol/Conc. of QC or TC in water]

[11] = In vitro stability in human blood serum (HPLC); type: in vitro ADME; conditions: 60 min incubation with human blood serum at 37° C.
Method: The in vitro stability of QC in […] is determined by incubating QC (10 μM in H2O, 50 μM) with 300 μL of human blood serum at 37° C. for 30 and 60 min. Proteins are precipitated by adding 500 μL of acetonitrile […] at 5000 rpm for 5 min at 4° C. The supernatant is collected. Approximately 0.1 mL of the supernatant solution is analyzed using HPLC.

[12] = test system: Aβ42 aggregates expressed in S. cerevisiae (BY4741); type: cell-based
[13] = test system: α-synuclein (A30P) aggregates expressed in S. cerevisiae (BY4741); type: cell-based; conditions: QC 5 μM
[14] = test system: Aβ plaques in CSF samples; test: Detection of amyloid plaques in CSF samples by fluorescence; conditions: QC 10 μM
Method: In the present experiment, Amyloid plaques in the CSF sample are detected as it is a hallmark of AD using ThT and QC. […] QC (10 μM) is used to detect Aβ plaques in the same set of CSF samples, which show the same trend as Thioflavin assay and stains CSF3, CSF5, CSF6 and CSF12 samples (FIG. 57 and table 6).

[15] = cresyl violet perchlorate standard

bovine serum albumin (BSA), sequence (P02769 25-607): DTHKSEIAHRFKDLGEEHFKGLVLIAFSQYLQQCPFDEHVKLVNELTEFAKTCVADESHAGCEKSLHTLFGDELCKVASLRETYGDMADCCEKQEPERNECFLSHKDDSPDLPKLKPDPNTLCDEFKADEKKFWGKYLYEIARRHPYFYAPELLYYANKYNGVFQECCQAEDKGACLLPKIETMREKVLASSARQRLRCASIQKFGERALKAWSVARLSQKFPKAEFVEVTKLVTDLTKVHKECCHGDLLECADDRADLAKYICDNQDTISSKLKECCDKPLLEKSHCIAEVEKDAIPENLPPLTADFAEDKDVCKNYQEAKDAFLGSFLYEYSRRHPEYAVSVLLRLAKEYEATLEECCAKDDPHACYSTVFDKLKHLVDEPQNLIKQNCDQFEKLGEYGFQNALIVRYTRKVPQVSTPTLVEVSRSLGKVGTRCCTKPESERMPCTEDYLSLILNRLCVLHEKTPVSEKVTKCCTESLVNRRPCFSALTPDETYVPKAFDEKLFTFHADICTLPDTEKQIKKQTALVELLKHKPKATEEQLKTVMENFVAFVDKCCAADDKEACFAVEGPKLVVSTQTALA
T1 sequence (P05067 672-713 limits assumed): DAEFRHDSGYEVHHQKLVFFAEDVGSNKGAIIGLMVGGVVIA
Aβ42 monomers, sequence (P05067 672-713 limits assumed): as above
ThT/Aβ42 aggregate complex, sequence (P05067 672-713 limits assumed, one chain of several): as the sequence (P05067 672-713 limits assumed) above
T2 sequence (P10997 34-70 limits assumed): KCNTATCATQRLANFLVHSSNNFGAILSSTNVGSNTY

**Q.** For `CCN(CC)c1ccc2cc(/C=C/c3ccc4ccccc4[n+]3C)c(=O)oc2c1.[I-]` [QC, 2-(2-(7-(diethylamino)-2-oxo-2H-chromen-3-yl)vinyl)-1-methylquinolin-1-ium Iodide], which “absorption maximum in absence of Aβ42 aggregates” value ([1]; PBS buffer (10 mM, pH 7.4)) is on record?
**A.** 516 nm

**Q.** What about the “emission maximum in absence of Aβ42 aggregates” value ([1]; PBS buffer, very weak fluorescence) of the same molecule?
**A.** 664 nm

**Q.** What about the “quantum yield, unbound” value [1, 15] of the same molecule?
**A.** 0.08

**Q.** And the “Stokes shift upon binding to Aβ42 aggregates” value [2]?
**A.** ~130 nm

**Q.** What about the “blue shift of emission maxima in presence of Aβ42 aggregates” value ([2]; QC 2 μM, Aβ42 aggregates 10 μM) of the same molecule?
**A.** 10 nm

**Q.** What about the “absorption maxima in presence of Aβ42 aggregates” value ([2]; QC 2 μM, Aβ42 aggregates 10 μM, PBS 10 mM) of the same molecule?
**A.** 521 nm

**Q.** And the “quantum yield after binding to Aβ42 aggregates” value [2, 15]?
**A.** 0.36

**Q.** And the “emission maximum in presence of Aβ42 aggregates” value ([2]; probe 2 μM)?
**A.** 654 nm

**Q.** And the “fluorescence enhancement in presence of Aβ42 aggregates” value ([2]; probe 2 μM, PBS buffer)?
**A.** > 100 fold

**Q.** And the “absorption maxima in presence of Aβ monomers” value [3]?
**A.** 521 nm

**Q.** What about the “fluorescence enhancement in presence of Aβ monomers” value ([3]; λem=654 nm) of the same molecule?
**A.** ~7 fold

**Q.** What about the “blue shift of λem maxima with α-Syn aggregates” value ([4]; QC 2 μM, α-Syn 20 μM) of the same molecule?
**A.** ~9 nm

**Q.** And the “fluorescence enhancement with α-Syn aggregates” value ([4]; α-Syn aggregates 20 μM)?
**A.** negligible enhancement in fluorescence

**Q.** What about the “fluorescence enhancement with IAPP aggregates” value [5] of the same molecule?
**A.** negligible enhancement in fluorescence

**Q.** What about the “fluorescence enhancement with BSA” value ([6]; BSA 20 μM) of the same molecule?
**A.** considerable fluorescence enhancement is not observed

**Q.** What about the “shift of emission with BSA” value ([6]; QC 2 μM) of the same molecule?
**A.** ~34 nm

**Q.** And the “λem with BSA” value ([6]; QC 2 μM)?
**A.** 616 nm

**Q.** What about the “fluorescence enhancement with calf thymus DNA” value [7] of the same molecule?
**A.** slight fluorescence enhancement

**Q.** And the Kd [8]?
**A.** 82 ± 2.3 nM

**Q.** What about the “displacement of ThT from ThT/Aβ42 aggregate complex” value [9] of the same molecule?
**A.** effective displacement of ThT by QC

**Q.** What about the logP [10] of the same molecule?
**A.** 2.4

**Q.** And the probe identified intact [11]?
**A.** more than 97%

**Q.** And the “fluorescence correlation coefficient with GFP tagged Aβ42 aggregates” value ([12]; QC 5 μM)?
**A.** 83.7%

**Q.** And the “staining of S. cerevisiae expressing Aβ42 aggregates” value ([12]; QC 5 μM, live cells)?
**A.** stains S. cerevisiae expressing Aβ42 aggregates selectively

**Q.** What about the “mean Pearson co-localization coefficient” value ([12]; live cells counted (n=50)) of the same molecule?
**A.** 0.837

**Q.** What about the “staining of S. cerevisiae strains with α-synuclein (A30P) aggregates” value [13] of the same molecule?
**A.** not stained

**Q.** What about the “Normalized fluorescence intensity (QC)” value ([14]; sample CSF1) of the same molecule?
**A.** 12.50

**Q.** And the “Normalized fluorescence intensity (QC)” value ([14]; sample CSF2)?
**A.** 3.24

**Q.** And the “Normalized fluorescence intensity (QC)” value ([14]; sample CSF3)?
**A.** 29.60

**Q.** And the “Normalized fluorescence intensity (QC)” value ([14]; sample CSF4)?
**A.** 10.70

**Q.** What about the “Normalized fluorescence intensity (QC)” value ([14]; sample CSF5) of the same molecule?
**A.** 51.50

**Q.** And the “Normalized fluorescence intensity (QC)” value ([14]; sample CSF6)?
**A.** 29.60

**Q.** And the “Normalized fluorescence intensity (QC)” value ([14]; sample CSF7)?
**A.** 6.40

**Q.** What about the “Normalized fluorescence intensity (QC)” value ([14]; sample CSF8) of the same molecule?
**A.** 11.08

**Q.** And the “Normalized fluorescence intensity (QC)” value ([14]; sample CSF9)?
**A.** 6.30

**Q.** What about the “Normalized fluorescence intensity (QC)” value ([14]; sample CSF10) of the same molecule?
**A.** 5.40

**Q.** And the “Normalized fluorescence intensity (QC)” value ([14]; sample CSF11)?
**A.** 6.70

**Q.** What about the “Normalized fluorescence intensity (QC)” value ([14]; sample CSF12) of the same molecule?
**A.** 44.40

**Q.** And the “Normalized fluorescence intensity (QC)” value ([14]; sample CSF13)?
**A.** 3.20

**Q.** And the “Normalized fluorescence intensity (QC)” value ([14]; sample CSF14)?
**A.** 12.30
